# In ChEMBL document CHEMBL1152479, “Synthesis and in vitro antitumor activities of novel 4-anilinoquinazoline derivatives” (Eur J Med Chem, 2009):
# System: MCF-7 (human)
# Assay: cells
# Settings: MCF-7, 72 h
row,IC50,Compound
1,35.9 µM,COc1cc2ncnc(Nc3cccc(C(F)(F)F)c3)c2cc1OCCCSc1nc2ccccc2s1
2,32.6 µM,CCCCc1nc(Cl)c(C=O)n1CCCOc1cc2c(Nc3cccc(I)c3)ncnc2cc1OC
3,37.3 µM,COc1cc2ncnc(Nc3cccc(C(F)(F)F)c3)c2cc1OCCCSc1nc2ccccc2o1
4,38.8 µM,CCCCc1nc(Cl)c(C=O)n1CCCOc1cc2c(Nc3cccc(C(F)(F)F)c3)ncnc2cc1OC
5,37 µM,COc1cc2ncnc(Nc3ccc(F)c(Cl)c3)c2cc1OCCCSc1nc2ccccc2o1

# System: A431 (human)
# Assay: cells
# Settings: A431, 72 h
row,IC50,Compound
1,14 µM,CCCCc1nc(Cl)c(C=O)n1CCCOc1cc2c(Nc3ccc(OC)cc3)ncnc2cc1OC
2,6.44 µM,CCCCc1nc(Cl)c(C=O)n1CCCOc1cc2c(Nc3cccc(Br)c3)ncnc2cc1OC
3,5.99 µM,CCCCc1nc(Cl)c(CO)n1CCCOc1cc2c(Nc3ccc(F)c(Cl)c3)ncnc2cc1OC
4,12 µM,CCCCc1nc(Cl)c(C=O)n1CCCOc1cc2c(Nc3cccc(F)c3)ncnc2cc1OC
5,17.2 µM,CCc1cc(Br)ccc1Nc1ncnc2cc(OC)c(OCCCSc3nc4ccccc4o3)cc12
6,8.2 µM,CCCCc1nc(Cl)c(CO)n1CCCOc1cc2c(Nc3cccc(Br)c3)ncnc2cc1OC
7,13.1 µM,COc1ccc(Nc2ncnc3cc(OC)c(OCCCSc4nc5ccccc5o4)cc23)cc1
8,14.2 µM,COc1ccc(Nc2ncnc3cc(OC)c(OCCCSc4nc5ccccc5s4)cc23)cc1
9,6.56 µM,CCCCc1nc(Cl)c(C=O)n1CCCOc1cc2c(Nc3ccc(Br)cc3CC)ncnc2cc1OC
10,5.37 µM,COc1cc2ncnc(Nc3ccc(F)c(Cl)c3)c2cc1OCCCSc1nc2ccccc2s1
11,9.08 µM,COc1cc2ncnc(Nc3ccc(OC(F)(F)F)cc3)c2cc1OCCCSc1nc2ccccc2o1
12,4.05 µM,COc1cc2ncnc(Nc3cccc(C(F)(F)F)c3)c2cc1OCCCSc1nc2ccccc2s1
13,14.2 µM,COc1cc2ncnc(Nc3ccc(C)cc3)c2cc1OCCCSc1nc2ccccc2s1
14,3 µM,CCCCc1nc(Cl)c(C=O)n1CCCOc1cc2c(Nc3cccc(I)c3)ncnc2cc1OC
15,10.1 µM,C#Cc1cccc(Nc2ncnc3cc(OC)c(OCCCn4c(CCCC)nc(Cl)c4C=O)cc23)c1
16,12.1 µM,COc1cc2ncnc(Nc3ccc(C)cc3)c2cc1OCCCSc1nc2ccccc2o1
17,9.95 µM,CCCCc1nc(Cl)c(CO)n1CCCOc1cc2c(Nc3cccc(I)c3)ncnc2cc1OC
18,10 µM,C#Cc1cccc(Nc2ncnc3cc(OC)c(OCCCn4c(CCCC)nc(Cl)c4CO)cc23)c1
19,8.28 µM,CCCCc1nc(Cl)c(CO)n1CCCOc1cc2c(Nc3cccc(C(F)(F)F)c3)ncnc2cc1OC
20,4.03 µM,COc1cc2ncnc(Nc3cccc(C(F)(F)F)c3)c2cc1OCCCSc1nc2ccccc2o1
21,3.51 µM,CCCCc1nc(Cl)c(C=O)n1CCCOc1cc2c(Nc3cccc(C(F)(F)F)c3)ncnc2cc1OC
22,4.05 µM,COc1cc2ncnc(Nc3ccc(F)c(Cl)c3)c2cc1OCCCSc1nc2ccccc2o1
23,5.87 µM,CCc1cc(Br)ccc1Nc1ncnc2cc(OC)c(OCCCSc3nc4ccccc4s3)cc12
24,5.02 µM,CCCCc1nc(Cl)c(C=O)n1CCCOc1cc2c(Nc3ccc(F)c(Cl)c3)ncnc2cc1OC
25,20 µM,CCCCc1nc(Cl)c(CO)n1CCCOc1cc2c(Nc3ccc(OC)cc3)ncnc2cc1OC
26,17.7 µM,CCCCc1nc(Cl)c(CO)n1CCCOc1cc2c(Nc3cccc(F)c3)ncnc2cc1OC
27,10.6 µM,CCCCc1nc(Cl)c(CO)n1CCCOc1cc2c(Nc3ccc(Br)cc3CC)ncnc2cc1OC
